Measurements published in US20090053721A1, “VOLTAGE-GATED ION CHANNEL MUTANTS FOR USE IN IDENTIFYING ION CHANNEL MODULATING COMPOUNDS” (CARDIOME PHARMA CORP., priority 2007, published 2009).
“And” between values parts separate entries of the source, which are not always exact repeats. Identical values can stand only once. Counter-ions that a name gives are not always drawn. Each block holds one compound with its values, some of them ahead of it.

Key:
Assay type in all cases: cell-based
[1] = target: T1, Kv1.5 I502A mutant channel (Homo sapiens, UniProt P22460, I502A); test: Voltage-dependence of block (Woodhull fit), I502A Kv1.5; settings: for blocking site, electrical distance across the membrane: Woodhull fit; for calculated binding site within the electric field (fractional electrical distance δ): from the inside of the pore
T1 construct: subcloned as a fragment back into full-length Kv1.5; expressed in transfected cells; host or cells: HEK293, transient transfection
Procedure: Coverslips with adherent cells plated on the surface were placed in a superfusion chamber (volume 300 μl) containing the control bath solution at 22° C. Whole-cell current recording and analysis were carried out using an Axopatch 200B amplifier and pClamp10 software (Axon Instruments, CA, USA). Patch electrodes were pulled from thin-walled borosilicate glass (World Precision Instruments, FL, USA) on a horizontal micropipette puller (Sutter Instruments, CA, USA). […] Analogue capacity compensation and 80% series resistance compensation were used during whole cell measurements. Membrane potentials were not corrected for junction potentials that arise between the pipette and bath solution. For Kv1.5 current recordings, a holding potential of −80 mV was used. Data were sampled at 10-20 kHz and filtered at 5 to 10 kHz. To assess drug block, half-log escalating concentrations of drug were added to the flowing bath solution and current traces were recorded with 400 ms depolarizing pulses to +60 mV at a frequency of 0.1 Hz.
f=[D]/([D]+Kd*e^−δzFE/RT)
where F, R, z and T have their usual meanings, δ represents the fractional electrical distance, i.e., the fraction of the transmembrane electrical field sensed by a single charge at the receptor site. Kd* represents the binding affinity at the reference voltage (0 mV). The current amplitude (Idrug and Icontrol) was measured at the end of a 400 ms depolarization.
The amount of block was measured at the end of the pulse at the time indicated by the arrow on each set of data records, and, after normalization to the control, current density was plotted as a function of the depolarization potential (FIGS. 7B, 8B). Data were then fit to a standard model of drug block to obtain the electrical distance of the blocking site into the electric field from the inside of the channel (Woodhull, 1973).

[2] = target: T2, Kv1.5 I508A mutant channel (Homo sapiens, UniProt P22460, I508A); test: Whole-cell patch-clamp block of mutant Kv1.5 current in HEK293 cells; settings: for Fold change: IC50 of I508A relative to WT, vernakalant potency reduced, flecainide potency increased
T2 construct: subcloned as a fragment back into full-length Kv1.5; expressed in transfected cells; host or cells: HEK293, transient transfection
Procedure: (§1) Stable lines of HEK293 cells expressing Kv1.5, or transient transfection of mutant Kv1.5 channels were used in all experiments. […] (Coralville, Iowa, USA), and mutants were generated using the Stratagene Quikchange kit (Stratagene, Calif., USA). […] This was added to the cells for overnight incubation after washing the media with 900 μl of MEM with 10% FBS. […] Media contained 10% bovine serum and 0.5 mg/ml geneticin for stable lines. On the day before recording, stably-expressing cells were washed with MEM, treated with trypsin/EGTA for one minute and plated on 25 mm^2 coverslips. All cell culture supplies were obtained from Invitrogen (Mississauga, ON, Canada). Control bath solution contained (in mM): 5 KCl, 135 NaCl, 2.8 sodium acetate, 1 MgCl2, 10 HEPES and 1 CaCl2, adjusted to pH 7.4 with NaOH. Patch pipettes contained (in mM): 130 KCl, 5 EGTA, 1 MgCl2, 10 HEPES, 4 Na2ATP, and 0.1 GTP, adjusted to pH 7.2 with KOH. All chemicals used to make solutions were obtained from Sigma-Aldrich (Mississauga, ON, Canada). […] (Vancouver, BC, Canada) and prepared as a stock solution (50 mM) in H2O. […] DMSO concentrations for either drug never exceeded 0.1% v/v in the final experimental solutions. Coverslips with adherent cells plated on the surface were placed in a superfusion chamber (volume 300 μl) containing the control bath solution at 22° C. Whole-cell current recording and analysis were carried out using an Axopatch 200B amplifier and pClamp10 software (Axon Instruments, CA, USA). Patch electrodes were pulled from thin-walled borosilicate glass (World Precision Instruments, FL, USA) on a horizontal micropipette puller (Sutter Instruments, CA, USA). […] Analogue capacity compensation and 80% series resistance compensation were used during whole cell measurements. Membrane potentials were not corrected for junction potentials that arise between the pipette and bath solution. […] Data were sampled at 10-20 kHz and filtered at 5 to 10 kHz. […] Data are represented as mean±SE unless otherwise specified. For significance of differences, * represents p<0.05, ** p<0.01; statistical analysis was conducted using Student's t-test (unpaired). Clampfit software (Axon Instruments, CA, USA) was used to analyze current traces. Data from each test pulse (currents in the presence of drug) were normalized to control test pulse currents obtained before drug exposure. […] IC50 is the concentration producing half-maximal inhibition; and n is the Hill coefficient.

[3] = target: T1, Kv1.5 I502A mutant channel; test: as above; settings: for Fold change: IC50 of I502A relative to WT, decrease in potency
Procedure: as §1

[4] = target: T3, Kv1.5 I502F mutant channel (Homo sapiens, UniProt P22460, I502F); test: as above
T3 construct: subcloned as a fragment back into full-length Kv1.5; expressed in transfected cells; host or cells: HEK293, transient transfection
Procedure: as §1

[5] = target: T4, Kv1.5 T479A mutant channel (Homo sapiens, UniProt P22460, T479A); test: as above; settings: for Fold change: IC50 of T479A relative to WT, potency increased
T4 construct: subcloned as a fragment back into full-length Kv1.5; expressed in transfected cells; host or cells: HEK293, transient transfection
Procedure: as §1

[6] = target: T5, Kv1.5 I502L mutant channel (Homo sapiens, UniProt P22460, I502L); test: as above
T5 construct: subcloned as a fragment back into full-length Kv1.5; expressed in transfected cells; host or cells: HEK293, transient transfection
Procedure: as §1

[7] = target: T6, Kv1.5 I508F mutant channel (Homo sapiens, UniProt P22460, I508F); test: as above
T6 construct: subcloned as a fragment back into full-length Kv1.5; expressed in transfected cells; host or cells: HEK293, transient transfection
Procedure: as §1

[8] = target: T7, Kv1.5 V505A mutant channel (Homo sapiens, UniProt P22460, V505A); test: as above; settings: for Fold change: IC50 of V505A relative to WT, vernakalant potency reduced, flecainide potency increased
T7 construct: subcloned as a fragment back into full-length Kv1.5; expressed in transfected cells; host or cells: HEK293, transient transfection
Procedure: as §1

[9] = target: T8, Kv1.5 V505F mutant channel (Homo sapiens, UniProt P22460, V505F); test: as above
T8 construct: subcloned as a fragment back into full-length Kv1.5; expressed in transfected cells; host or cells: HEK293, transient transfection
Procedure: as §1

T7 sequence (P22460 whole entry V505A, the tested form may be a part): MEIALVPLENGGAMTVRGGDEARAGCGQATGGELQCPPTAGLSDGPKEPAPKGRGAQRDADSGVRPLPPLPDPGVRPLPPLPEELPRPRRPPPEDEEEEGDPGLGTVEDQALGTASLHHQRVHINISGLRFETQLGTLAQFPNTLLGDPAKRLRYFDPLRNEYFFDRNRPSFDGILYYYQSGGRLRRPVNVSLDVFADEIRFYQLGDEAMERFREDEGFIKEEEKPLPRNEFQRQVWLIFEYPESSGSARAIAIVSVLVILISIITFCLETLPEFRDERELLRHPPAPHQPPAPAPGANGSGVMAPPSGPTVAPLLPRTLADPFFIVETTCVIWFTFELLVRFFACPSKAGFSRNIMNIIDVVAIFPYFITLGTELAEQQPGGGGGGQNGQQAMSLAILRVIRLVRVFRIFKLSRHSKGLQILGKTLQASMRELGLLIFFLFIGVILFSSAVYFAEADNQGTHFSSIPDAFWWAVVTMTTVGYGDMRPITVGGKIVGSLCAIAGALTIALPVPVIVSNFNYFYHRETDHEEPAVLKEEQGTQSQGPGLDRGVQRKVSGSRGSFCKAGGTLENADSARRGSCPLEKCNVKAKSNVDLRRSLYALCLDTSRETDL
T2 sequence (P22460 whole entry I508A, the tested form may be a part): as the sequence (P22460 whole entry V505A, the tested form may be a part) above, with A505V, I508A counted along it
T6 sequence (P22460 whole entry I508F, the tested form may be a part): as the sequence (P22460 whole entry V505A, the tested form may be a part) above, with A505V, I508F counted along it
T3 sequence (P22460 whole entry I502F, the tested form may be a part): as the sequence (P22460 whole entry V505A, the tested form may be a part) above, with I502F, A505V counted along it
T8 sequence (P22460 whole entry V505F, the tested form may be a part): as the sequence (P22460 whole entry V505A, the tested form may be a part) above, with A505F counted along it
T5 sequence (P22460 whole entry I502L, the tested form may be a part): as the sequence (P22460 whole entry V505A, the tested form may be a part) above, with I502L, A505V counted along it
T4 sequence (P22460 whole entry T479A, the tested form may be a part): as the sequence (P22460 whole entry V505A, the tested form may be a part) above, with T479A, A505V counted along it
T1 sequence (P22460 whole entry I502A, the tested form may be a part): as the sequence (P22460 whole entry V505A, the tested form may be a part) above, with I502A, A505V counted along it

Structure (SMILES): COc1ccc(CCO[C@@H]2CCCC[C@H]2N2CC[C@@H](O)C2)cc1OC [Vernakalant, 3-Pyrrolidinol, 1-[(1R,2R)-2-[2-(3,4-dimethoxyphenyl)ethoxy]cyclohexyl]-,hydrochloride, (3R)]
blocking site, electrical distance across the membrane [1]: ~40%
calculated binding site within the electric field (fractional electrical distance δ) [1]: 0.39
Hill coefficient ([2]; Kv1.5 I508A): 0.87
Fractional Block ± SEM ([2]; Kv1.5 I508A, 10 μM vernakalant): 0.21 ± 0.03
Hill coefficient ([3]; Kv1.5 I502A): 0.65
Fractional Block ± SEM ([3]; Kv1.5 I502A, 10 μM vernakalant): 0.07 ± 0.03
Hill coefficient ([4]; Kv1.5 I502F): 0.84
Fractional Block ± SEM ([4]; Kv1.5 I502F, 10 μM vernakalant): 0.10 ± 0.01
Hill coefficient ([5]; Kv1.5 T479A): 0.6
Fractional Block ± SEM ([5]; Kv1.5 T479A, 10 μM vernakalant): 0.77 ± 0.05
Hill coefficient ([6]; Kv1.5 I502L): 0.96
Fractional Block ± SEM ([6]; Kv1.5 I502L, 10 μM vernakalant): 0.33 ± 0.07
Hill coefficient ([7]; Kv1.5 I508F): 1.23
Fractional Block ± SEM ([7]; Kv1.5 I508F, 10 μM vernakalant): 0.94 ± 0.02
Hill coefficient ([8]; Kv1.5 V505A): 0.95
Fractional Block ± SEM ([8]; Kv1.5 V505A, 10 μM vernakalant): 0.21 ± 0.04
Hill coefficient ([9]; Kv1.5 V505F): 0.96
Fractional Block ± SEM ([9]; Kv1.5 V505F, 10 μM vernakalant): 0.27 ± 0.05

blocking site, electrical distance across the membrane [1]: 32%
calculated binding site within the electric field (fractional electrical distance δ) [1]: 0.32
Fold change [2]: 5.15
Fold change ([2]; listed as flecamide): 5.2
IC50 ([2]; Kv1.5 I508A): 7.39 ± 0.92 µM
Fold change [3]: 2.43
Fold change ([3]; listed as flecamide): 2.4
IC50 ([3]; Kv1.5 I502A): 92 µM
Fold change ([4]; IC50 of I502F relative to WT): 4.13
IC50 ([4]; Kv1.5 I502F): 164 ± 31.4 µM
Fold change [5]: 200
Fold change ([5]; listed as flecamide): 238
IC50 ([5]; Kv1.5 T479A): 190 ± 40 nM
Fold change ([6]; IC50 of I502L relative to WT, direction differs by drug): 3.55
IC50 ([6]; Kv1.5 I502L): 10.8 ± 1.09 µM
Fold change ([7]; IC50 of I508F relative to WT, direction differs by drug): 1.96
IC50 ([7]; Kv1.5 I508F): 74.7 ± 5.37 µM
Fold change [8]: 2.92
Fold change ([8]; listed as flecamide): 3
IC50 ([8]; Kv1.5 V505A): 13.1 ± 3.58 µM
Fold change ([9]; IC50 of V505F relative to WT, direction differs by drug): 8.93
IC50 ([9]; Kv1.5 V505F): 4.3 µM and 4.27 µM
Structure (SMILES): O=C(NCC1CCCCN1)c1cc(OCC(F)(F)F)ccc1OCC(F)(F)F (stereo not shown) [Flecainide]
